# Measured values reported in the NIST ThermoML archive (doi:10.1016/j.jct.2013.11.036).
# Numbers after ± are expanded uncertainties.
# Experiment: mn = molality of the nth substance listed, in mol/kg
# Settings: Liquid, Constant-volume piezometry
structure (smiles),measurement,setting,value
CCCO [propan-1-ol] + O,mass density,"383.2 K, 3256 kPa, m1 = 7.407",879.4 ± 1.1 kg/m3
same,mass density,"383.2 K, 6865 kPa, m1 = 7.407",881.7 ± 1.1 kg/m3
same,mass density,"383.2 K, 12651 kPa, m1 = 7.407",885.3 ± 1.1 kg/m3
same,mass density,"393.03 K, 3256 kPa, m1 = 14.38",830.8 ± 1 kg/m3
same,mass density,"393.03 K, 6453 kPa, m1 = 14.38",833.7 ± 1 kg/m3
same,mass density,"393.03 K, 9885 kPa, m1 = 14.38",836.6 ± 1 kg/m3
same,mass density,"393.03 K, 13239 kPa, m1 = 14.38",838.9 ± 1 kg/m3
same,mass density,"394.81 K, 3472 kPa, m1 = 2.531",911.1 ± 1.1 kg/m3
same,mass density,"394.81 K, 7845 kPa, m1 = 2.531",913.4 ± 1.1 kg/m3
same,mass density,"394.81 K, 11768 kPa, m1 = 2.531",915.6 ± 1.1 kg/m3
same,mass density,"398.15 K, 5000 kPa, m1 = 0.869",932 ± 1.1 kg/m3
same,mass density,"398.15 K, 5000 kPa, m1 = 2.465",912.7 ± 1.1 kg/m3
same,mass density,"398.15 K, 10000 kPa, m1 = 0.869",934.6 ± 1.1 kg/m3
same,mass density,"398.15 K, 10000 kPa, m1 = 2.465",915.5 ± 1.1 kg/m3
same,mass density,"398.15 K, 20000 kPa, m1 = 0.869",939.5 ± 1.2 kg/m3
same,mass density,"398.15 K, 20000 kPa, m1 = 2.465",920.8 ± 1.1 kg/m3
same,mass density,"398.15 K, 30000 kPa, m1 = 0.869",943.9 ± 1.2 kg/m3
same,mass density,"398.15 K, 30000 kPa, m1 = 2.465",925.7 ± 1.2 kg/m3
same,mass density,"398.15 K, 40000 kPa, m1 = 0.869",948 ± 1.2 kg/m3
same,mass density,"398.15 K, 40000 kPa, m1 = 2.465",930.1 ± 1.2 kg/m3
same,mass density,"410.72 K, 3923 kPa, m1 = 56.35",771.4 ± 0.9 kg/m3
same,mass density,"410.72 K, 10787 kPa, m1 = 56.35",780.5 ± 1 kg/m3
same,mass density,"423.15 K, 5000 kPa, m1 = 0.869",909.2 ± 1.1 kg/m3
same,mass density,"423.15 K, 5000 kPa, m1 = 2.465",888.1 ± 1.1 kg/m3
same,mass density,"423.15 K, 10000 kPa, m1 = 0.869",912.1 ± 1.1 kg/m3
same,mass density,"423.15 K, 10000 kPa, m1 = 2.465",891.4 ± 1.1 kg/m3
same,mass density,"423.15 K, 20000 kPa, m1 = 0.869",917.6 ± 1.1 kg/m3
same,mass density,"423.15 K, 20000 kPa, m1 = 2.465",897.5 ± 1.1 kg/m3
same,mass density,"423.15 K, 30000 kPa, m1 = 0.869",922.6 ± 1.2 kg/m3
same,mass density,"423.15 K, 30000 kPa, m1 = 2.465",903.1 ± 1.1 kg/m3
same,mass density,"423.15 K, 40000 kPa, m1 = 0.869",927 ± 1.2 kg/m3
same,mass density,"423.15 K, 40000 kPa, m1 = 2.465",908 ± 1.2 kg/m3
same,mass density,"423.61 K, 3432 kPa, m1 = 14.38",797.3 ± 1 kg/m3
same,mass density,"423.61 K, 6453 kPa, m1 = 14.38",800.5 ± 1 kg/m3
same,mass density,"423.61 K, 10042 kPa, m1 = 14.38",804.1 ± 1 kg/m3
same,mass density,"423.61 K, 12827 kPa, m1 = 14.38",806.4 ± 1 kg/m3
same,mass density,"426.33 K, 3668 kPa, m1 = 2.531",880.3 ± 1.1 kg/m3
same,mass density,"426.33 K, 6865 kPa, m1 = 2.531",882.1 ± 1.1 kg/m3
same,mass density,"426.33 K, 10787 kPa, m1 = 2.531",884.4 ± 1.1 kg/m3
same,mass density,"427.06 K, 4001 kPa, m1 = 7.407",834.6 ± 1 kg/m3
same,mass density,"427.06 K, 6453 kPa, m1 = 7.407",836.9 ± 1 kg/m3
same,mass density,"427.06 K, 10375 kPa, m1 = 7.407",839.8 ± 1 kg/m3
same,mass density,"448.15 K, 5000 kPa, m1 = 0.869",883 ± 1.1 kg/m3
same,mass density,"448.15 K, 5000 kPa, m1 = 2.465",860.5 ± 1.1 kg/m3
same,mass density,"448.15 K, 10000 kPa, m1 = 0.869",886.4 ± 1.1 kg/m3
same,mass density,"448.15 K, 10000 kPa, m1 = 2.465",864.4 ± 1.1 kg/m3
same,mass density,"448.15 K, 20000 kPa, m1 = 0.869",892.7 ± 1.1 kg/m3
same,mass density,"448.15 K, 20000 kPa, m1 = 2.465",871.5 ± 1.1 kg/m3
same,mass density,"448.15 K, 30000 kPa, m1 = 0.869",898.3 ± 1.2 kg/m3
same,mass density,"448.15 K, 30000 kPa, m1 = 2.465",877.9 ± 1.1 kg/m3
same,mass density,"448.15 K, 40000 kPa, m1 = 0.869",903.2 ± 1.2 kg/m3
same,mass density,"448.15 K, 40000 kPa, m1 = 2.465",883.5 ± 1.2 kg/m3
same,mass density,"457.85 K, 3589 kPa, m1 = 14.38",754.1 ± 0.9 kg/m3
same,mass density,"457.85 K, 8198 kPa, m1 = 14.38",760.4 ± 0.9 kg/m3
same,mass density,"457.85 K, 13141 kPa, m1 = 14.38",766.1 ± 1 kg/m3
same,mass density,"463.81 K, 4805 kPa, m1 = 7.407",790.8 ± 1 kg/m3
same,mass density,"463.81 K, 7355 kPa, m1 = 7.407",793.5 ± 1 kg/m3
same,mass density,"463.81 K, 10787 kPa, m1 = 7.407",796.8 ± 1 kg/m3
same,mass density,"472.74 K, 3668 kPa, m1 = 2.531",826.7 ± 1 kg/m3
same,mass density,"472.74 K, 6531 kPa, m1 = 2.531",829.7 ± 1 kg/m3
same,mass density,"472.74 K, 10297 kPa, m1 = 2.531",832.6 ± 1 kg/m3
same,mass density,"486.26 K, 7512 kPa, m1 = 56.35",668.9 ± 0.8 kg/m3
same,mass density,"486.26 K, 11278 kPa, m1 = 56.35",680.2 ± 0.9 kg/m3
same,mass density,"500.33 K, 4982 kPa, m1 = 2.531",790 ± 1 kg/m3
same,mass density,"500.33 K, 7100 kPa, m1 = 2.531",792.6 ± 1 kg/m3
same,mass density,"500.33 K, 9316 kPa, m1 = 2.531",794.5 ± 1 kg/m3
same,mass density,"501.66 K, 4491 kPa, m1 = 14.38",685 ± 0.9 kg/m3
same,mass density,"501.66 K, 6943 kPa, m1 = 14.38",691.7 ± 0.9 kg/m3
same,mass density,"501.66 K, 10415 kPa, m1 = 14.38",699.7 ± 0.9 kg/m3
same,mass density,"501.66 K, 14298 kPa, m1 = 14.38",706.5 ± 0.9 kg/m3
same,mass density,"504.03 K, 4805 kPa, m1 = 7.407",730.7 ± 0.9 kg/m3
same,mass density,"504.03 K, 7669 kPa, m1 = 7.407",735.5 ± 0.9 kg/m3
same,mass density,"504.03 K, 9807 kPa, m1 = 7.407",739.6 ± 0.9 kg/m3
same,mass density,"504.03 K, 10866 kPa, m1 = 7.407",741.9 ± 0.9 kg/m3
same,mass density,"536.99 K, 10160 kPa, m1 = 56.35",558.4 ± 0.7 kg/m3
same,mass density,"536.99 K, 11140 kPa, m1 = 56.35",566.4 ± 0.9 kg/m3
same,mass density,"536.99 K, 11591 kPa, m1 = 56.35",573.2 ± 1.7 kg/m3
same,mass density,"537.32 K, 9885 kPa, m1 = 14.38",619.3 ± 0.8 kg/m3
same,mass density,"537.32 K, 10611 kPa, m1 = 14.38",628.3 ± 0.8 kg/m3
same,mass density,"537.32 K, 14298 kPa, m1 = 14.38",642.1 ± 0.8 kg/m3
same,mass density,"538.96 K, 7433 kPa, m1 = 2.531",728.6 ± 0.9 kg/m3
same,mass density,"538.96 K, 8649 kPa, m1 = 2.531",731.3 ± 0.9 kg/m3
same,mass density,"538.96 K, 11023 kPa, m1 = 2.531",736.1 ± 0.9 kg/m3
same,mass density,"543.97 K, 7335 kPa, m1 = 7.407",653.7 ± 0.8 kg/m3
same,mass density,"543.97 K, 10532 kPa, m1 = 7.407",666.5 ± 0.9 kg/m3
same,mass density,"543.97 K, 12749 kPa, m1 = 7.407",673.5 ± 0.9 kg/m3
same,mass density,"574.64 K, 11886 kPa, m1 = 56.35",322.1 ± 1 kg/m3
same,mass density,"574.64 K, 13082 kPa, m1 = 56.35",409.5 ± 1 kg/m3
same,mass density,"574.64 K, 14004 kPa, m1 = 56.35",441.1 ± 0.8 kg/m3
same,mass density,"574.64 K, 14509 kPa, m1 = 56.35",456.5 ± 0.7 kg/m3
same,mass density,"574.64 K, 15043 kPa, m1 = 56.35",468 ± 0.7 kg/m3
same,mass density,"575.95 K, 11768 kPa, m1 = 14.38",437.4 ± 3.9 kg/m3
same,mass density,"575.95 K, 11886 kPa, m1 = 14.38",475.9 ± 4 kg/m3
same,mass density,"575.95 K, 13317 kPa, m1 = 14.38",509.3 ± 0.7 kg/m3
same,mass density,"575.95 K, 13729 kPa, m1 = 14.38",521.1 ± 0.8 kg/m3
same,mass density,"577.86 K, 11717 kPa, m1 = 2.531",643.6 ± 2.2 kg/m3
same,mass density,"577.86 K, 11768 kPa, m1 = 2.531",652.5 ± 2.2 kg/m3
same,mass density,"577.86 K, 12160 kPa, m1 = 2.531",656.7 ± 0.9 kg/m3
same,mass density,"582.08 K, 12239 kPa, m1 = 7.407",540 ± 0.8 kg/m3
same,mass density,"582.08 K, 12866 kPa, m1 = 7.407",557.8 ± 0.8 kg/m3
same,mass density,"582.08 K, 13670 kPa, m1 = 7.407",567.6 ± 0.8 kg/m3
same,mass density,"582.08 K, 14377 kPa, m1 = 7.407",576.7 ± 0.8 kg/m3
